According to ChEMBL document CHEMBL5465560, “Selectivity Literature for EUbOPEN Chemogenomic Library” (2024):

Tests used:
[1] = target: Tyrosine-protein kinase HCK (Homo sapiens) (UniProt P08631); test: Selectivity interaction (Ambit KINOMEscan and KiNATiv profiling in Jurkat cells) EUB0000090b HCK; type: cell-based; conditions: at 1 µM
[2] = target: T1, Histone-arginine methyltransferase CARM1 (Homo sapiens) (UniProt Q86X55); test: Selectivity interaction (Methyltransferase screen (Scintillation proximity assays)) EUB0000255b CARM1
T1 sequence (whole entry): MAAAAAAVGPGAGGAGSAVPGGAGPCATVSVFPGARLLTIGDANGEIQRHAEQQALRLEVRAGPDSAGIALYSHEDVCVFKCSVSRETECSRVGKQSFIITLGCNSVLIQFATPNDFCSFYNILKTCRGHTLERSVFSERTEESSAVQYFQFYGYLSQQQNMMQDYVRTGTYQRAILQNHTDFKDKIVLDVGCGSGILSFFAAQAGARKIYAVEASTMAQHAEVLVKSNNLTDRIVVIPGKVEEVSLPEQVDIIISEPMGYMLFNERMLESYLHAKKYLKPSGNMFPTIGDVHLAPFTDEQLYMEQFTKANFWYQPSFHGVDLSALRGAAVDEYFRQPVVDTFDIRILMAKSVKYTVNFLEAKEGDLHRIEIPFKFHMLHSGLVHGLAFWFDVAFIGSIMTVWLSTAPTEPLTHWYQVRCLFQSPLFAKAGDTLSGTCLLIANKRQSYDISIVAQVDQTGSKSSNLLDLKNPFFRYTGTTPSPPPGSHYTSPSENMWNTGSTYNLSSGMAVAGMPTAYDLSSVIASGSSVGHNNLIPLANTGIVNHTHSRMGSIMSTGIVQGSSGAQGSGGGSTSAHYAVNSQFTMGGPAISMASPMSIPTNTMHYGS

[3] = target: STE20-like serine/threonine-protein kinase (Homo sapiens, UniProt Q9H2G2); test: Selectivity interaction (KinomeScan (DiscoverX)) EUB0000655a SLK; conditions: at 10 µM
[4] = test system: Proto-oncogene tyrosine-protein kinase receptor Ret (Homo sapiens), P07949 [V804L]; test: Selectivity interaction (KinomeScan (DiscoverX)) EUB0000607a RET; conditions: at 10 µM
[5] = target: T2, Serine/threonine-protein kinase LATS2 (Homo sapiens) (UniProt Q9NRM7); test: Selectivity interaction (KinomeScan (DiscoverX)) EUB0000045b LATS2
T2 sequence (whole entry): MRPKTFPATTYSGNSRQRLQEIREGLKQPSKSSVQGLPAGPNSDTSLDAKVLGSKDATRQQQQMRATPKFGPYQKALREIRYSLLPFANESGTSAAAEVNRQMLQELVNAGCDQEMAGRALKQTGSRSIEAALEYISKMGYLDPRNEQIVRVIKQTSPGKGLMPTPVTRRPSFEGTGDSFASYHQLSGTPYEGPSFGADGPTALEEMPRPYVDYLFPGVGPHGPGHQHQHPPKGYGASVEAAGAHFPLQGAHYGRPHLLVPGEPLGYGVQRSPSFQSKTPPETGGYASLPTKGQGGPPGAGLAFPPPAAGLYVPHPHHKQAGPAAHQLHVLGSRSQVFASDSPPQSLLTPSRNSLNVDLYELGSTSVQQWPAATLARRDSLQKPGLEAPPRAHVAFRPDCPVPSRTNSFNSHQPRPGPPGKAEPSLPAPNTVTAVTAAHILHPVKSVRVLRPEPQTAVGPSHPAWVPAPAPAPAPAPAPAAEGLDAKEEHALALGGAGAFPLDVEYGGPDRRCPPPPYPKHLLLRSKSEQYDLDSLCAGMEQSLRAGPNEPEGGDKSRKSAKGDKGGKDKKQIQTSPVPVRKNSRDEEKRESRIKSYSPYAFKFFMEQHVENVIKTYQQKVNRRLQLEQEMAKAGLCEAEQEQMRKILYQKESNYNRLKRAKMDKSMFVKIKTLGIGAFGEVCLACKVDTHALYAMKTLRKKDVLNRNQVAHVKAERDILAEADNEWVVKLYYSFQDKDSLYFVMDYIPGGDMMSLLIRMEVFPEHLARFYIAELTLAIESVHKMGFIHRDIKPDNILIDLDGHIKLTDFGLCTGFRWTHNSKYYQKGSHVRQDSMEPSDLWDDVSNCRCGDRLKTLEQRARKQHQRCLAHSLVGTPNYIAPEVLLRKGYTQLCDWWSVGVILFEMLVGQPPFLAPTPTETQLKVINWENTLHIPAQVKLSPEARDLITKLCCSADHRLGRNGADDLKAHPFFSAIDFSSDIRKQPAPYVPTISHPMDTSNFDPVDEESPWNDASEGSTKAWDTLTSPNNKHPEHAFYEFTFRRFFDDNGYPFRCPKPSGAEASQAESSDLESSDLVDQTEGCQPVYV

[6] = target: Serine/threonine-protein kinase SIK3 (Homo sapiens) (UniProt Q9Y2K2); test: Selectivity interaction (KinomeScan (DiscoverX)) EUB0001049a SIK3; conditions: at 1 µM
[7] = target: Tyrosine-protein kinase JAK1 (Homo sapiens, UniProt P23458); test: Selectivity interaction (KinomeScan (DiscoverX)) EUB0000666a JAK1; conditions: at 10 µM

Sequence of Proto-oncogene tyrosine-protein kinase receptor Ret (Homo sapiens), P07949 [V804L] (P07949 whole entry V804L): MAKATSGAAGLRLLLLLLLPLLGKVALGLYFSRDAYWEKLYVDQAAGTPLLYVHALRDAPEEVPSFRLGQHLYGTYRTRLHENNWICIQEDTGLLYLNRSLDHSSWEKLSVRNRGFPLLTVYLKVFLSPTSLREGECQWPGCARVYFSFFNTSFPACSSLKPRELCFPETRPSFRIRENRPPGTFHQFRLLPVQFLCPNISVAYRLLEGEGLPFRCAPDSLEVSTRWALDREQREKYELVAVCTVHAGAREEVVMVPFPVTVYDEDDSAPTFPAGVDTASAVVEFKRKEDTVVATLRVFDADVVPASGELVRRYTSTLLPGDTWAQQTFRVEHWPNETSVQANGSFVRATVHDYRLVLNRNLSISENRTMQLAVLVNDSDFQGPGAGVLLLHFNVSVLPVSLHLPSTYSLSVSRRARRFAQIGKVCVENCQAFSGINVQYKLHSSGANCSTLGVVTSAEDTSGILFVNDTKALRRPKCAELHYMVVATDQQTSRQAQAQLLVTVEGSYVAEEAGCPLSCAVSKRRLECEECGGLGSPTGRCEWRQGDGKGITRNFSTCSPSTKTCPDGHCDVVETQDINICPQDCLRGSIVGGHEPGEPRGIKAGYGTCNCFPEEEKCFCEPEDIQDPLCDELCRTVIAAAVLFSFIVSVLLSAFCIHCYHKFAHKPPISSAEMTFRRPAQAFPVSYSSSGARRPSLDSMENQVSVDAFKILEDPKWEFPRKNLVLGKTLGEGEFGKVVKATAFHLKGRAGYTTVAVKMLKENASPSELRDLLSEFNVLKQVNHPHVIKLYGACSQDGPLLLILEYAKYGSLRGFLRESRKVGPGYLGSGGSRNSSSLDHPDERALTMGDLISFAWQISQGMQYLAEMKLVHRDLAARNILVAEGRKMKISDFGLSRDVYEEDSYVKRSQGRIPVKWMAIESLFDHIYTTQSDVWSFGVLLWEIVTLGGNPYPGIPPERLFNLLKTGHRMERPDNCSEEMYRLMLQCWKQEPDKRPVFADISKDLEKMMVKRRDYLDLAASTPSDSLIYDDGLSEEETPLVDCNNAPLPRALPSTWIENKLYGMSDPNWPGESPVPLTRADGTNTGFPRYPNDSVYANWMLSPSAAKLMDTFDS
Sequence of Serine/threonine-protein kinase SIK3 (Homo sapiens) (Q9Y2K2 whole entry, looked up): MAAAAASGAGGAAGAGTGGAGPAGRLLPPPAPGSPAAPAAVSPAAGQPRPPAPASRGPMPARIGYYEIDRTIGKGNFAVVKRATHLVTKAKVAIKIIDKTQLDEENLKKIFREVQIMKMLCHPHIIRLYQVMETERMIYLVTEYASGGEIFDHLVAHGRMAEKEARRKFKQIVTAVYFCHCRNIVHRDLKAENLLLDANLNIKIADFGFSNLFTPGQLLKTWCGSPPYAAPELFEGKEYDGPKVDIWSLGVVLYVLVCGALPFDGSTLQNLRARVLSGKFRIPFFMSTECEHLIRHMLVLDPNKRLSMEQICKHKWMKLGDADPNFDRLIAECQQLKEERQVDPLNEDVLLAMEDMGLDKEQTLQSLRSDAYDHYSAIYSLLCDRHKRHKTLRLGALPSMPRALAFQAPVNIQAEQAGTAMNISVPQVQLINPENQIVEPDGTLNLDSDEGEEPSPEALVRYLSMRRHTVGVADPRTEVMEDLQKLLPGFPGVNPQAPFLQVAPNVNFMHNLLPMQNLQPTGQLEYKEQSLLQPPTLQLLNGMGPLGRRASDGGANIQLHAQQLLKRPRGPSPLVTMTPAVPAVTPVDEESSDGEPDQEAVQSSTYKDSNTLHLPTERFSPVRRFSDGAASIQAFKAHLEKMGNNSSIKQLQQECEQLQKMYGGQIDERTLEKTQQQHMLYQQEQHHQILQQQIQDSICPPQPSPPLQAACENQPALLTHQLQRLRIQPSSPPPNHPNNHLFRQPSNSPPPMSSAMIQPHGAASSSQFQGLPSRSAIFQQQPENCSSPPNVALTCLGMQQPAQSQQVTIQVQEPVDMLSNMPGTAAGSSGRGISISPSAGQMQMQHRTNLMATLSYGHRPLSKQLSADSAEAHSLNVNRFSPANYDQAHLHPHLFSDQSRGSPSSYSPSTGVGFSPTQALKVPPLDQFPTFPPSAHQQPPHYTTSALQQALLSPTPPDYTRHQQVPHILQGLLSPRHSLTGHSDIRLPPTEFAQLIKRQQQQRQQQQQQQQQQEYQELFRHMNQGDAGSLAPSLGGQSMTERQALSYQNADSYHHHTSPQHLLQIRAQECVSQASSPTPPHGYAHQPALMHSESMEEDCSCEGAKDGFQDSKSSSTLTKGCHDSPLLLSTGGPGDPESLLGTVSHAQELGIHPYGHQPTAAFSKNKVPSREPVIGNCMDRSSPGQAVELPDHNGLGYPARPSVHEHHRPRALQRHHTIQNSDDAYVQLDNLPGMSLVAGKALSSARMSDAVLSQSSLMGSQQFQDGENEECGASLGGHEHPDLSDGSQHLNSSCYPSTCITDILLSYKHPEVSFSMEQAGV
Sequence of Tyrosine-protein kinase HCK (Homo sapiens) (P08631 2-526 limits assumed): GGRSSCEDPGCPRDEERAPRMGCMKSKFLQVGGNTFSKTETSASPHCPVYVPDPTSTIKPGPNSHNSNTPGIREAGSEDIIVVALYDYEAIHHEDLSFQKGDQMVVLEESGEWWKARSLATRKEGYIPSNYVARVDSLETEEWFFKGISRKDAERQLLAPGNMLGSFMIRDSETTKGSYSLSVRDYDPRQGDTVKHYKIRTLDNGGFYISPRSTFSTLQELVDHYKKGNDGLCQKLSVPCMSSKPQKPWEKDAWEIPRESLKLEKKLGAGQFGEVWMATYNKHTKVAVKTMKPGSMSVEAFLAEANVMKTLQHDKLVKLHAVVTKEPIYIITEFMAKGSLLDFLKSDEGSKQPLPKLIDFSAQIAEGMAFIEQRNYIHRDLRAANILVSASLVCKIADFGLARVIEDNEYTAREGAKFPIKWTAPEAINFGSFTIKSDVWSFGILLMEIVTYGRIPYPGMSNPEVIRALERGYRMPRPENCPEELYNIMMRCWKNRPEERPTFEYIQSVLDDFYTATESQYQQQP
Sequence of STE20-like serine/threonine-protein kinase (Q9H2G2 whole entry, looked up): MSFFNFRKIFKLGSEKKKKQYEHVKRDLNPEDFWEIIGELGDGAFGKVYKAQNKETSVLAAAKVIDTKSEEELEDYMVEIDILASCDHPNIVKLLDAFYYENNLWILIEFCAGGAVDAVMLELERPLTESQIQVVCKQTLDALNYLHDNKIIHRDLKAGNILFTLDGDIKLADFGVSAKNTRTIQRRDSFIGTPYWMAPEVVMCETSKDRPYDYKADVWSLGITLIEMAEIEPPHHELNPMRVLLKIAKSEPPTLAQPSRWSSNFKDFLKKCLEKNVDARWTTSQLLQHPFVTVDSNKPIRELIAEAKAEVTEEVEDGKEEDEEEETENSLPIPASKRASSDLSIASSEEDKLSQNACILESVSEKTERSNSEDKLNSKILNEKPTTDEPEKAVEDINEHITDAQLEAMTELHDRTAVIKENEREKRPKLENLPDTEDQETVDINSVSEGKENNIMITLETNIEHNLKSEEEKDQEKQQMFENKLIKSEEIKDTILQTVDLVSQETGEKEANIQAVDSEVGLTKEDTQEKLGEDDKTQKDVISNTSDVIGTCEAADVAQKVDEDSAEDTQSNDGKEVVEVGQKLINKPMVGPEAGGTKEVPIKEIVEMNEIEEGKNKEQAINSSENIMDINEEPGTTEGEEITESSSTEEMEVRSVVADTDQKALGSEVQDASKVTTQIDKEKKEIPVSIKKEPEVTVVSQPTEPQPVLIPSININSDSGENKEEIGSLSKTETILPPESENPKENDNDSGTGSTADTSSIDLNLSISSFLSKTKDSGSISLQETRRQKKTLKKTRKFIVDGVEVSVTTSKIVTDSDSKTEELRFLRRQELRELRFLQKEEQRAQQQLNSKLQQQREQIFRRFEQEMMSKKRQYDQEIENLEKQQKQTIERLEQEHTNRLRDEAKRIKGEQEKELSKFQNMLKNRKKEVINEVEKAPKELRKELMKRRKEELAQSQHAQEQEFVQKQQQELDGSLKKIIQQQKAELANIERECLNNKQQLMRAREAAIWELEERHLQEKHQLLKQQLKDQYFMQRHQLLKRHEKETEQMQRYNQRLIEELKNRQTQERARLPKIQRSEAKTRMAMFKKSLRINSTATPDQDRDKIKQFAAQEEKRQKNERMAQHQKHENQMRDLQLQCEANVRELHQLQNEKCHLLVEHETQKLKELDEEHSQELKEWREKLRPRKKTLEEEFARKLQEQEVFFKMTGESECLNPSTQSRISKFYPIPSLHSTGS

## CN(C)C/C=C/C(=O)Nc1ccc(C(=O)N2CCCC(Nc3ncc(Cl)c(-c4c[nH]c5ccccc45)n3)C2)cc1 (centres undefined)
[1]
  % of control: 83%

## COCCN1CCC(c2cc(CN(C)C(=O)c3cccc(Oc4ccccc4)c3)ccn2)CC1
[2]; at 1 µM
  % activity: < 1%
[2]; at 10 µM
  % activity: 23%

## CN(C)CCOc1ccc(-c2nc(-c3ccncc3)c(-c3ccc4c(c3)CC/C4=N\O)[nH]2)cc1
[3]
  % of control: 1.3%

## CNC(=O)Nc1ccc(-c2nc(N3CC4CCC(C3)O4)c3cnn(C4CCC5(CC4)OCCO5)c3n2)cc1
[4]
  % of control: 85%

## C=CC(=O)Nc1cc(-n2c(=O)ccc3cnc4ccc(-c5ccc(NS(C)(=O)=O)cc5)cc4c32)ccc1C
[5]; at 1 µM
  % of control: 100%
[5]; at 10 µM
  % of control: 81%

## COc1cc(Nc2nc(C)cc(-c3cnn4nc(OC)ccc34)n2)cc(C(F)(F)F)c1
[6]
  % of control: 82%

## O=C(NOC[C@H](O)CO)c1ccc(F)c(F)c1Nc1ccc(I)cc1F
[7]
  % of control: 100%
